The values that follow come from PMC5223195, “Novel long-chain compounds with both immunomodulatory and MenA inhibitory activities against Staphylococcus aureus and its biofilm” (Scientific Reports, 2017).

The structures appear in SMILES notation. Converted amounts (≈) assume the structure as drawn. Like-named read-outs stand apart in the source and are kept apart here.

Experiment [1] concerns MRSA USA500. Description: MIC against MRSA USA500. The class given is cell-based, Staphylococcus aureus. To be noted: TSB, 37 °C, 18–20 hours; for MIC: Staphylococcus aureus, read-out: MIC, Staphylococcus aureus isolate USA500. The procedure: (§1) 96-well plates were seeded with 5 × 10^5 CFU/mL in a volume of 100 μL of tryptic soy broth (TSB) per well for Staphylococcus aureus assays. Compounds were dissolved in DMSO and serially diluted as 1:2 dilutions to give the final concentration ranging from 0.25 to 128 μg/mL per well. […] Plates were incubated at 37 °C for 18–20 hours and MIC was determined by reading OD625. For M.avium and M.abscessus, 7H9 broth media was used for determination of MICs. The final concentration was 5 × 10^5 CFU/mL in each well. The plate was incubated at 37 °C for 7–8 days and MICs were determined using a Tecan microplate reader (OD625) and resazurin reduction assay.

Experiment [2] deals with Methicillin susceptible Staphylococcus aureus. The experiment can be described thus: MIC against MSSA. Conditions: for MIC: MSSA. It counts as cell-based. The procedure: as §1
The subject of experiment [3] is Enterococcus faecalis. The experiment can be described thus: MIC against Enterococcus faecalis. It counts as cell-based. Conditions: read-out: MIC, EF.
The test system of experiment [4] is Pseudomonas aeruginosa. Description: MIC against Pseudomonas aeruginosa. It counts as cell-based. To be noted: read-out: MIC, PA.
Experiment [5] deals with MRSA USA100. The experiment can be described thus: MIC against MRSA USA100. It counts as cell-based, Staphylococcus aureus. To be noted: Staphylococcus aureus, read-out: MIC, Staphylococcus aureus isolate USA100. The procedure: as §1
Experiment [6] concerns Mycobacterium abscessus. The experiment can be described thus: MIC against Mycobacterium abscessus. It counts as cell-based. Conditions: Mycobacteroides abscessus, 7H9 broth, 7–8 days. The procedure: as §1
For experiment [7], the system named is Gram-positive bacteria. Description: MIC against Gram-positive bacteria (summary). It counts as cell-based. To be noted: range over all tested Gram-positive bacteria. The protocol: as §1
Experiment [8] deals with Mycobacterium avium. Description: MIC against Mycobacterium avium. The class given is cell-based. Conditions: 7H9 broth, 7–8 days. The protocol:
as §1

Experiment [9] relates to MRSA USA300. The experiment can be described thus: MIC against MRSA USA300. Conditions: Staphylococcus aureus; TSB, 37 °C, 18–20 hours; read-out: MIC, Staphylococcus aureus isolate USA300. It counts as cell-based, Staphylococcus aureus. The protocol:
as §1

The test system of experiment [10] is MRSA USA200. Description: MIC against MRSA USA200. To be noted: for MIC: Staphylococcus aureus, read-out: MIC, Staphylococcus aureus isolate USA200. The class given is cell-based, Staphylococcus aureus. The procedure:
as §1

Experiment [11] deals with MRSA USA400. The experiment can be described thus: MIC against MRSA USA400. The class given is cell-based, Staphylococcus aureus. To be noted: TSB, 37 °C, 18–20 hours; for MIC: Staphylococcus aureus, read-out: MIC, Staphylococcus aureus isolate USA400. The protocol:
as §1

Experiment [12] deals with MRSA USA800. The experiment can be described thus: MIC against MRSA USA800. To be noted: Staphylococcus aureus; TSB, 37 °C, 18–20 hours; read-out: MIC, Staphylococcus aureus isolate USA800. It counts as cell-based, Staphylococcus aureus. The procedure:
as §1

In experiment [13] the test system is MRSA USA700. The experiment can be described thus: MIC against MRSA USA700. It counts as cell-based, Staphylococcus aureus. Conditions: for MIC: Staphylococcus aureus, read-out: MIC, Staphylococcus aureus isolate USA700. The protocol:
as §1

The MIC is the lowest concentration found to suppress growth.

Take `COc1ccc2ccc(OCCCCCCCCNCCc3ccc(Cl)cc3)cc2c1` [3b]: the minimal inhibitory concentration (MIC) in experiment [1] is 8 µg/mL (≈ 18.2 µM); in experiment [2], 4 µg/mL (≈ 9.09 µM); in experiment [3] it was 0.5 µg/mL (≈ 1.14 µM); in [4], > 64 µg/mL; in experiment [5] (TSB, 37 °C, 18–20 hours) it was 6 µg/mL (≈ 13.6 µM); in experiment [6], 12 µg/mL (≈ 27.3 µM). Moreover, the minimum inhibitory concentration (MIC) turned out to be 4 µg/mL (≈ 9.09 µM) in experiment [8]; 6 µg/mL (≈ 13.6 µM) in [9]; 2 µg/mL (≈ 4.55 µM) in experiment [10] (TSB, 37 °C, 18–20 hours); 4 µg/mL (≈ 9.09 µM) in [11]; 6 µg/mL (≈ 13.6 µM) in [12]; 8 µg/mL (≈ 18.2 µM) in experiment [13] (TSB, 37 °C, 18–20 hours). In addition, the “MIC values against all Gram-positive bacteria (range)” value in [7] was 0.5 to 16 µg/mL.
As to `COc1ccc2ccc(OCCCCCCCCN3CCc4ccccc4C3)cc2c1` [3d], the “MIC, Staphylococcus aureus isolate USA500” value in [1] stood at 128 µg/mL (≈ 307 µM). Further, in experiment [2], the “MIC, MSSA” value was 32 µg/mL (≈ 76.6 µM). Also, in [10] (TSB, 37 °C, 18–20 hours), the “MIC, Staphylococcus aureus isolate USA200” value is >128 µg/mL. In addition, the “MIC, Staphylococcus aureus isolate USA400” value in experiment [11] is 64 µg/mL (≈ 153 µM). The “MIC, Staphylococcus aureus isolate USA700” value in experiment [13] (TSB, 37 °C, 18–20 hours) was 32 µg/mL (≈ 76.6 µM).
Consider `COc1ccc2ccc(OCCCCCCCCN3CCN(c4ccc(F)cc4)CC3)cc2c1` [3e], for which the MIC in [3] and in experiment [13] was > 128 µg/mL in each case.
`COc1ccc2ccc(OCCCCCCCCn3c4ccccc4c4ccccc43)cc2c1` [3f]: the MIC in [5] and in experiment [13] was > 128 µg/mL in each case.
In the case of `COc1ccc2ccc(OCCCCCCCCN3C(=O)OC[C@@H]3Cc3ccccc3)cc2c1` [3g], the MIC is > 128 µg/mL in experiment [2]; > 128 µg/mL in [4]; > 128 µg/mL in experiment [11]; > 128 µg/mL in experiment [13] (TSB, 37 °C, 18–20 hours).
In the case of `COc1ccc2ccc(OCCCCCCCCN[C@@H]3CCOC3=O)cc2c1` [3h], the MIC is > 128 µg/mL in experiment [2]; > 128 µg/mL in [4]; > 128 µg/mL in experiment [11]; > 128 µg/mL in experiment [13] (TSB, 37 °C, 18–20 hours).
`COc1ccc2ccc(OCCCCCCCCN3CCC(F)CC3)cc2c1` [3i]: the MIC in [13] was > 128 µg/mL.
In the case of `C=CCN(C)CCCOC/C=C/COc1ccc2ccc(OC)cc2c1` [4a], the MIC in experiment [10] and in [13] was 128 µg/mL (≈ 360 µM) in each case.
As for `COc1ccc2ccc(OC/C=C/COCCCN3CCCCC3)cc2c1` [4b], the MIC in experiment [4] was > 128 µg/mL; in [13], 128 µg/mL (≈ 346 µM).
Consider `COc1ccc2ccc(OC/C=C/COCCCNCCc3ccc(F)cc3)cc2c1` [4c], for which the minimal inhibitory concentration (MIC) in [1] is 16 µg/mL (≈ 37.8 µM); in experiment [2], 16 µg/mL (≈ 37.8 µM); in [4] it was > 64 µg/mL; in experiment [5] (TSB, 37 °C, 18–20 hours), 8 µg/mL (≈ 18.9 µM); in experiment [8], 8 µg/mL (≈ 18.9 µM); in experiment [9], 8 µg/mL (≈ 18.9 µM). The MIC was found to be 8 µg/mL (≈ 18.9 µM) in [11]; 16 µg/mL (≈ 37.8 µM) in [12]; 16 µg/mL (≈ 37.8 µM) in experiment [13] (TSB, 37 °C, 18–20 hours).
Regarding `Fc1ccc(CCNCCCCCCCCOc2ccc3cc(Br)ccc3c2)cc1` [5a], the MIC was 2 µg/mL (≈ 4.23 µM) in experiment [3]; 16 µg/mL (≈ 33.9 µM) in experiment [5] (TSB, 37 °C, 18–20 hours); 4 µg/mL (≈ 8.47 µM) in experiment [9]; 4 µg/mL (≈ 8.47 µM) in experiment [10] (TSB, 37 °C, 18–20 hours); 8 µg/mL (≈ 16.9 µM) in [11]; 4 µg/mL (≈ 8.47 µM) in experiment [13] (TSB, 37 °C, 18–20 hours).
As to `Clc1ccc(CCNCCCCCCCCOc2ccc3cc(Br)ccc3c2)cc1` [5b], the MIC in experiment [3] was 16 µg/mL (≈ 32.7 µM); in experiment [5] (TSB, 37 °C, 18–20 hours), > 128 µg/mL; in experiment [9], 32 µg/mL (≈ 65.5 µM); in experiment [10] (TSB, 37 °C, 18–20 hours) it was 16 µg/mL (≈ 32.7 µM); in experiment [11], 64 µg/mL (≈ 131 µM); in experiment [13] (TSB, 37 °C, 18–20 hours), 64 µg/mL (≈ 131 µM).
